Assay results as given in patent EP2193713A1, “Method for fighting animal pests without damaging pollinating insects” (Bayer CropScience AG, priority 2008, dated 2010).
Read-outs that look alike come from different tables or passages of the source.

Experiments:
Format in all cases: in vivo
[1] = system: Apis mellifera; assay: Tent test / drench application / bees: foraging activity; settings: for Aktivität der Nahrungssuche, Zahl der Bienen / min / 4 m^2: 10 mg a.s./pl.
Excerpt: Der Test wurde wie folgt durchgeführt:

[2] = system: Apis mellifera; assay: Tunnel test / spray application / bees: brood development (share of comb cells); settings: 50 g a.s./ha
Excerpt: (§1) Der Test wurde gemäß EPPO (European Plant Protection Organisation) Leitlinie 170 wie folgt durchgeführt:
Über alle Waben eines Bienenstocks wird der jeweilige Anteil an Zellen bestimmt, der durch Pollen, Nektar, Eier, Larven oder Puppen belegt ist bzw. leer ist. […]

[3] = system: Apis mellifera; settings: for Zahl toter Arbeiterbienen: 50 g a.s./ha
Excerpt: as §1
(§2) Die Mortalität von Arbeiterbienen vor dem Bienenstock wird mittels einer Falle für tote Bienen (dead bee trap) bestimmt. Die Falle besteht aus Maschendraht und ist vor dem Bienenstock angebracht. Einzelne, lebende Bienen können die Maschen des Drahts passieren, der Transport toter Bienen durch die Maschen ist nicht möglich, weswegen tote Bienen sich in der Falle ansammeln. Tabelle 1 (siehe auch Figur 1)

[4] = system: Apis mellifera; assay: Greenhouse test / residue test / bees: mortality after contact with treated tomato leaves; settings: 50 g a.s./ha
Excerpt: Der Versuch wurde wie folgt durchgeführt:
Die Tomatenpflanzen wurden im Gewächshaus mit den Testverbindungen bzw. der Referenzsubstanz behandelt (Spritzappliaktion, 3 fache Wiederholung). 1, 3, 6 und 13 Tage nach Behandlung (DAA) wurden Blätter entnommen (je 5 Blattproben pro Behandlung) und in Boxen gegeben. In jede Box wurden 10 Bienen transferiert und die Boxen wurden unter kontrollierten Bedingungen aufbewahrt, wobei die Bienen mit Zuckerlösung gefüttert wurden. 24, 48 und 72 nach Transfer der Bienen wurde deren Mortalität bestimmt. Tabelle 9 (siehe auch Figur 9)

[5] = system: Apis mellifera; settings: for Zahl toter Arbeiterbienen: 10 mg a.s./pl.
Excerpt: as §2

[6] = system: Apis mellifera; assay: Tunnel test / spray application / bees: foraging activity; settings: for Aktivität der Nahrungssuche, Zahl der Bienen / min / m^2: 50 g a.s./ha
Excerpt: as §1
Während einer Minute werden in einem abgegrenzten Bereich von 2 x 1 m^2 die Bienen gezählt, die auf Blüten absitzen. Tabelle 3 (siehe auch Figur 3)

[7] = system: Apis mellifera; assay: Tunnel test / spray application / bees: acute mortality of pupae in front of the hive; settings: 50 g a.s./ha
Excerpt: as §1
Tabelle 2 (siehe auch Figur 2)

[8] = result in words, 27 Tage nach Applikation

Structure (SMILES): CN1COCN(Cc2cnc(Cl)s2)/C1=N\[N+](=O)[O-] [Thiamethoxam, reference compound]
- Aktivität der Nahrungssuche, Zahl der Bienen / min / 4 m^2 ([1]; 5 DAA): 28 Bienen / min / 4 m^2
- Aktivität der Nahrungssuche, Zahl der Bienen / min / 4 m^2 ([1]; 6 DAA b (14:30 Uhr)): 70 Bienen / min / 4 m^2
- Aktivität der Nahrungssuche, Zahl der Bienen / min / 4 m^2 ([1]; 7 DAA): 23 Bienen / min / 4 m^2
- Aktivität der Nahrungssuche, Zahl der Bienen / min / 4 m^2 ([1]; 8 DAA): 25 Bienen / min / 4 m^2
- Aktivität der Nahrungssuche, Zahl der Bienen / min / 4 m^2 ([1]; 9 DAA): 19 Bienen / min / 4 m^2
- Aktivität der Nahrungssuche, Zahl der Bienen / min / 4 m^2 ([1]; 11 DAA): 16 Bienen / min / 4 m^2
- Aktivität der Nahrungssuche, Zahl der Bienen / min / 4 m^2 ([1]; 13 DAA): 14 Bienen / min / 4 m^2
- Aktivität der Nahrungssuche, Zahl der Bienen / min / 4 m^2 ([1]; 15 DAA): 8 Bienen / min / 4 m^2
- Aktivität der Nahrungssuche, Zahl der Bienen / min / 4 m^2 ([1]; 16 DAA): 15 Bienen / min / 4 m^2
- Aktivität der Nahrungssuche, Zahl der Bienen / min / 4 m^2 ([1]; 17 DAA): 13 Bienen / min / 4 m^2
- Aktivität der Nahrungssuche, Zahl der Bienen / min / 4 m^2 ([1]; 18 DAA): 6 Bienen / min / 4 m^2
- Aktivität der Nahrungssuche ([1]; result in words, tent test, drench, I-5 20 mg a.s. / Pflanze, Thiamethoxam 10 mg a.s. / Pflanze (13 Tage nach Applikation)): fast vollständige Einstellung der Aktivität der Nahrungssuche
- Anteil an Zellen: Eier ([2]; 1 Tag vor Applikation): 17,5%
- Anteil an Zellen: Larven ([2]; 1 Tag vor Applikation): 9%
- Anteil an Zellen: Leer ([2]; 1 Tag vor Applikation): 30%
- Anteil an Zellen: Nektar ([2]; 1 Tag vor Applikation): 12%
- Anteil an Zellen: Pollen ([2]; 1 Tag vor Applikation): 2,4%
- Anteil an Zellen: Puppen ([2]; 1 Tag vor Applikation): 29,1%
- Anteil an Zellen: Eier ([2]; 6 Tage nach Applikation): 11,4%
- Anteil an Zellen: Larven ([2]; 6 Tage nach Applikation): 6,3%
- Anteil an Zellen: Leer ([2]; 6 Tage nach Applikation): 30,9%
- Anteil an Zellen: Nektar ([2]; 6 Tage nach Applikation): 19,4%
- Anteil an Zellen: Pollen ([2]; 6 Tage nach Applikation): 3,3%
- Anteil an Zellen: Puppen ([2]; 6 Tage nach Applikation): 28,7%
- Anteil an Zellen: Eier ([2]; 14 Tage nach Applikation): 19,4%
- Anteil an Zellen: Larven ([2]; 14 Tage nach Applikation): 7,4%
- Anteil an Zellen: Leer ([2]; 14 Tage nach Applikation): 51,8%
- Anteil an Zellen: Nektar ([2]; 14 Tage nach Applikation): 9,2%
- Anteil an Zellen: Pollen ([2]; 14 Tage nach Applikation): 1,5%
- Anteil an Zellen: Puppen ([2]; 14 Tage nach Applikation): 10,7%
- Anteil an Zellen: Eier ([2]; 27 Tage nach Applikation): 6,1%
- Anteil an Zellen: Larven ([2]; 27 Tage nach Applikation): 2%
- Anteil an Zellen: Leer ([2]; 27 Tage nach Applikation): 52%
- Anteil an Zellen: Nektar ([2]; 27 Tage nach Applikation): 15,5%
- Anteil an Zellen: Pollen ([2]; 27 Tage nach Applikation): 5,1%
- Anteil an Zellen: Puppen ([2]; 27 Tage nach Applikation): 19,2%
- Zahl der Larven [2, 8]: starke Abnahme
- leere Wabenzellen [2, 8]: Verdoppelung
- Zahl toter Arbeiterbienen ([3]; 0 DAA b (15:15 Uhr)): 420
- Zahl toter Arbeiterbienen ([3]; 0 DAA c (17:15 Uhr)): 45,3
- Zahl toter Arbeiterbienen ([3]; 1 DAA): 152,8
- Zahl toter Arbeiterbienen ([3]; 2 DAA): 229,4
- Zahl toter Arbeiterbienen ([3]; 3 DAA): 50,2
- Zahl toter Arbeiterbienen ([3]; 4 DAA): 891,6
- Zahl toter Arbeiterbienen ([3]; 5 DAA): 2,4
- Zahl toter Arbeiterbienen ([3]; 6 DAA): 9
- Zahl toter Arbeiterbienen ([3]; 11 DAA): 16,5
- Zahl toter Arbeiterbienen ([3]; -3 DAA (before application)): 1,6
- Mortalität von Arbeiterbienen vor dem Bienenstock ([3]; result in words, tunnel test, spray, I-5 75 und 150 g a.s./ha, Thiamethoxam 50 g a.s./ha): ausgeprägte Mortalität
- Mortalität ([4]; leaves taken 1 Tag nach Behandlung, 24 h contact): 100%
- Mortalität ([4]; leaves taken 1 Tag nach Behandlung, 48 h contact): 100%
- Mortalität ([4]; leaves taken 1 Tag nach Behandlung, 72 h contact): 100%
- Mortalität ([4]; leaves taken 3 Tage nach Behandlung, 24 h contact): 100%
- Mortalität ([4]; leaves taken 3 Tage nach Behandlung, 48 h contact): 100%
- Mortalität ([4]; leaves taken 3 Tage nach Behandlung, 72 h contact): 100%
- Mortalität ([4]; leaves taken 6 Tage nach Behandlung, 24 h contact): 100%
- Mortalität ([4]; leaves taken 6 Tage nach Behandlung, 48 h contact): 100%
- Mortalität ([4]; leaves taken 6 Tage nach Behandlung, 72 h contact): 100%
- Mortalität ([4]; leaves taken 13 Tage nach Behandlung, 24 h contact): 93,3%
- Mortalität ([4]; leaves taken 13 Tage nach Behandlung, 48 h contact): 93%
- Mortalität ([4]; leaves taken 13 Tage nach Behandlung, 72 h contact): 93,3%
- Zahl toter Arbeiterbienen ([5]; 6 DAA a (9:30 Uhr)): 143
- Zahl toter Arbeiterbienen ([5]; 6 DAA b (14:30 Uhr)): 35
- Zahl toter Arbeiterbienen ([5]; 7 DAA): 394
- Zahl toter Arbeiterbienen ([5]; 8 DAA): 143
- Zahl toter Arbeiterbienen ([5]; 9 DAA): 78
- Zahl toter Arbeiterbienen ([5]; 10 DAA): 295
- Zahl toter Arbeiterbienen ([5]; 11 DAA): 110
- Zahl toter Arbeiterbienen ([5]; 14 DAA): 40
- Zahl toter Arbeiterbienen ([5]; 16 DAA): 74
- Zahl toter Arbeiterbienen ([5]; 18 DAA): 29
- Mortalität von Arbeiterbienen vor dem Bienenstock ([5]; result in words, tent test, drench, I-5 20 mg a.s. / Pflanze, Thiamethoxam 10 mg a.s. / Pflanze): ausgeprägte Mortalität
- Aktivität der Nahrungssuche, Zahl der Bienen / min / m^2 ([6]; 0 DAA a (09:30 Uhr)): 26,8 Bienen / min / m^2
- Aktivität der Nahrungssuche, Zahl der Bienen / min / m^2 ([6]; 0 DAA c (14:15 Uhr)): 0,9 Bienen / min / m^2
- Aktivität der Nahrungssuche, Zahl der Bienen / min / m^2 ([6]; 0 DAA e (17:15 Uhr)): 0,4 Bienen / min / m^2
- Aktivität der Nahrungssuche, Zahl der Bienen / min / m^2 ([6]; 1 DAA b (15:30 Uhr)): 0 Bienen / min / m^2
- Aktivität der Nahrungssuche, Zahl der Bienen / min / m^2 ([6]; 2 DAA): 1,5 Bienen / min / m^2
- Aktivität der Nahrungssuche, Zahl der Bienen / min / m^2 ([6]; 3 DAA): 1,6 Bienen / min / m^2
- Aktivität der Nahrungssuche, Zahl der Bienen / min / m^2 ([6]; 6 DAA): 5,4 Bienen / min / m^2
- Aktivität der Nahrungssuche, Zahl der Bienen / min / m^2 ([6]; -1 DAA (before application)): 26,1 Bienen / min / m^2
- Aktivität der Nahrungssuche, Zahl der Bienen / min / m^2 ([6]; -2 DAA (before application)): 35,2 Bienen / min / m^2
- Aktivität der Nahrungssuche, Zahl der Bienen / min / m^2 ([6]; -3 DAA (before application)): 24,5 Bienen / min / m^2
- Aktivität der Nahrungssuche ([6]; result in words, tunnel test, spray, I-5 75 und 150 g a.s./ha, Thiamethoxam 50 g a.s./ha directly after application): fast vollständige Einstellung der Aktivität der Nahrungssuche
- Zahl toter Puppen ([7]; 0 DAA c (17:15 Uhr)): 0
- Zahl toter Puppen ([7]; 1 DAA): 0
- Zahl toter Puppen ([7]; 2 DAA): 0,1
- Zahl toter Puppen ([7]; 5 DAA): 0,5
- Zahl toter Puppen ([7]; 6 DAA): 0
- Zahl toter Puppen ([7]; 11 DAA): 0
- Zahl toter Puppen ([7]; 14 DAA): 0,4
- Zahl toter Puppen ([7]; 18 DAA): 0
- Zahl toter Puppen ([7]; 21 DAA): 0
- Zahl toter Puppen ([7]; 25 DAA): 0,2
- Zahl toter Puppen ([7]; -3 DAA (before application)): 0
